The record followed here is US20240100176A1, “HUMAN INTERLEUKIN-4 RECEPTOR ALPHA ANTIBODY GLUCOCORTICOID CONJUGATES” (Eli Lilly and Company, priority 2022, published 2024).

Assay type in all cases: cell-based
Assay [1] relates to IL-4 induced proliferation of human primary B cells. Description: Inhibition of IL-4 induced B cell proliferation. The procedure: Human PBMCs were isolated from human blood samples by standard Ficoll-Paque™ plus (GE […]) density gradient centrifugation methods, and primary B cells were isolated from the PBMC suspension by negative selection with EasySep™ Human Naïve B cell Enrichment kit according to the manufacturer's protocol ([…]™ Technologies). […] Cells were stimulated with Human CD40/TNFRSF5 Antibody (200 ng/mL; R&D SYSTEMS) and with IL-4 recombinant human protein (5 ng/mL; R&D SYSTEMS) for 2 days at 37° C. and 5% CO2. Cells were then pulsed with [^3H]-thymidine ([…] thymidine/well; PerkinElmer®) for 18 hours at 37° C. and level of [^3H]-thymidine incorporation was measured by a Microplate Counter (MicroBeta 2; PerkinElmer®) and expressed as a […] (CCPM). Statistical analysis was performed using GraphPad Prism 9 and curves were generated by fitting a sigmoidal curve of the log (Ab concentration) vs. the mean percent inhibition of CCPM compared to CD40 stimulation alone from two donors.

The subject of assay [2] is anti-CD40 induced proliferation of human primary B cells. Briefly: Glucocorticoid receptor mediated inhibition of anti-CD40 induced B cell proliferation. The procedure: Human PBMCs were isolated from human blood samples by standard Ficoll-Paque™ plus (GE […]) density gradient centrifugation methods, and primary B cells were isolated from the PBMC suspension by negative selection with EasySep™ Human Naïve B cell Enrichment kit according to the manufacturer's protocol ([…]™ Technologies). […] Cells were then pulsed with [^3H]-thymidine ([…] thymidine/well; PerkinElmer®) for 18 hours at 37° C. and level of [^3H]-thymidine incorporation was measured by a Microplate Counter (MicroBeta 2; PerkinElmer®) and expressed as a […] (CCPM). Statistical analysis was performed using GraphPad Prism 9 and curves were generated by fitting a sigmoidal curve of the log(Ab concentration) vs. the mean percent inhibition of CCPM compared to no stimulation from 2 donors.

For assay [3], the system named is GM-CSF secretion from Human PBMCs. Description: Inhibition of cytokine secretion from human PBMCs. The note with it: PBMC; PHA-M/PMA stimulated human PBMCs, 48 hours; 100 nM. The procedure: (§1) Example 4h. Inhibition of Cytokine secretion from Human PBMCs: PBMCs were isolated from Ficoll-layered blood centrifuged at 400×g for 30 minutes at room temperature. The PBMC layer was washed with sterile RPMI-1640 media (Corning® Cat. #10041CV) and centrifuged at 1500 rpm for 5 min, at 4° C. Red blood cells are lysed by resuspending the cell pellet in 5 mL of ACK Lysing Buffer (GIBCO Cat. #A1049201) and incubating at room temperature for 5 minutes. […] The plates are incubated at 37° C. with 5% CO2 for 48 hours. After the incubation period, plates are centrifuged at 2000 rpm for 1 min and the top 100 μL of the supernatants are removed and stored at −80° C., until ready to perform cytokine detection. Cytokine release is detected using the U-PLEX Custom Biomarker [Human] Multiplex Assay (MESO SCALE DISCOVERY), according to the manufacturer's protocol. Statistical analysis is performed using GraphPad Prism 9. Data was presented as sigmoidal curve fits of the mean of the individual donors' percent inhibition for each cytokine (n=2) vs. the log(Ab concentration) and statistical analysis is performed using GraphPad Prism 9.

Assay [4] deals with IL-5 secretion from Human PBMCs. Briefly: Inhibition of cytokine secretion from human PBMCs. The following applies: PBMC; PHA-M/PMA stimulated human PBMCs, 48 hours; 100 nM. The procedure:
as §1

The subject of assay [5] is MDC secretion from Human PBMCs. Description: Inhibition of cytokine secretion from human PBMCs. The following applies: PBMC; PHA-M/PMA stimulated human PBMCs, 48 hours; 100 nM. The procedure: as §1

Broadly, the IC50 is the concentration that inhibits the measured activity by half. Read a low IC50 as greater potency. In turn, `Cc1ccc(OCc2cccc(N)c2)c(F)c1[C@H]1O[C@@H]2C[C@H]3[C@@H]4CCC5=CC(=O)C=C[C@]5(C)[C@H]4[C@@H](O)C[C@]3(C)[C@]2(C(=O)CO)O1` (single isomer, unassigned) [GC1] returned an inhibition at 0.06667 µM in assay [1] (Homo sapiens, B-cell, IL-4 induced, 66.67 nM) of 25.7%. Also, the “Inhibition of IL-4 induced B cell proliferation (in words)” value in assay [1] (compared to the isotype control) is given as “no significant inhibition was observed”. In addition, half-maximal inhibition in assay [2] (anti-CD40 (200 ng/mL) induced, no IL-4) (IC50) was put at 3.73 nM. The inhibition at 0.1 µM amounted to 66.5% in assay [2] (read-out: Inhibition of B cell proliferation at 100 nM % inhibition, anti-CD40 induced, 100 nM); 90.8% in assay [3]; 97.4% in assay [4]; 96.1% in assay [5].
